What was measured:
[1] = system: TS/A cells; assay: Tumor size of TS/A tumors implanted in BALB/c mice, intratumoral treatment; format: in vivo; settings: for Tumor size (% control): tamoxifen 10 μM, 100 μl intratumorally once a day
Procedure: A cell culture of TS/A cells was first performed. These TS/A cells are mouse mammary adenocarcinomas (see Nanni P et al., Clin. Exp. Metastasis, 1983 October-December; 1(4): 373-80). The cells are cultured, at 37° C. under 5% CO2, in a DMEM medium supplemented with 2 g/liter of sodium carbonate, 1.2 mM of glutamine (pH 7.4 at 23° C.), 5% of fetal bovine serum (Gibco) and 2.5 ml of antibiotics per liter of medium (penicillin/streptomycin).
The TS/A cells are recovered with trypsin, washed twice and suspended in PBS buffer. The TS/A cells (approximately 4×10^6 […] cells/0.1 ml) are then injected subcutaneously into the flank of 6-week-old female BALB/c mice (supplied by Charles River). […] The animals (10 mice per group) are monitored regularly for tumor development. The volume of the tumors is calculated according to the following formula: L×l^2×0.5 (L is the length and l is the width of the tumor). The experiment was reproduced twice. The results are given in FIG. 18 (the arrow indicates the beginning of the treatment).

[2] = system: MCF7 cells; assay: OCDO production by MCF7 cells incubated with [14C]CE, thin-layer chromatography; format: cell-based, human
Excerpt: For assays 1 to 5 and in some of the examples given later in this patent application, MCF7 tumor cells, which originate from the American Tissue Culture Collection (ATCC), were used. […] It is desired to study the activity of ChEH in […] cells by silica thin-layer chromatography. The compounds that it is desired to visualize are the CE and CT compounds defined above. In order to visualize the spots corresponding to CE and CT on a chromatography plate, ^14C-labeled CE and CT compounds were synthesized.
In order to be used in assays 1 to 5 which follow, the cells are seeded into 6-well plates at a density of 80 000 cells in a volume of 2 ml. […] After the incubation time desired for the assay, the medium is collected, the cells are washed with cold PBS (phosphate buffer) (2 ml per well) which is pooled with the medium. The cells are then scraped into cold PBS (1 ml for 3 wells); the wells are again rinsed with cold PBS (1 ml for 3 wells). The cell suspension obtained is centrifuged at 1000 rpm for 5 min at 4° C. […] Throughout the rest of this description, the vehicle solvent used is the same as that defined above.
The aqueous and organic radioactivities are counted. The organic phases are brought to dryness under argon. The residue is resuspended in 60 μl of ethanol and then deposited, in a proportion of 20 μl per lane, on to the glass-backed silica plates (Whatman LK-6-DF, 20×20), which are used in the various assays (these plates having been preheated at 100° C. for 1 hour). The migration solvent used is ethyl acetate. The chromatography plates are placed in contact with a “phosphor-screen” plate in a cassette overnight. […] In order to evaluate the more or less dense nature of the spots obtained on the plates, the radioactivity is quantified by densitometry with the “Imagequant”™ computer program.
Generally, in order to establish the percentages of OCDO inhibition from the thin-layer chromatography (TLC) plates obtained as in assay 2, the radioactive metabolites are identified and quantified on the basis of said plates using a europium-sensitive plate of GP Phosphor screen type (GE Healthcare) and a Storm 840 phosphorimagor (GE Healthcare). The proportion of radiolabeled oxysterols is determined on the autoradiogram obtained by densitometry using the Image Quant 5.2 software. The percentage is calculated on the basis of the ratio between the amount of oxysterols quantified divided by the sum of the amounts of oxysterols (CEE+CE+CT+OCDO). Since the CEE (CE ester) originates exclusively from the CE, the percentage CE is calculated on the basis of the ratio (CE+CEE)/(CE+CEE+CT+OCDO).
Assay 2 given above was therefore completed by measuring the amounts of the products present when the MCF7 tumor cells are incubated as indicated in detail in assay 2.
In order to establish that the link that exists between, on the one hand, the ability of various compounds to inhibit OCDO in an MCF7 tumor cell and, on the other hand, their quality as a ChEH inhibitor, is well-founded, the inhibition coefficients Ki for ChEH relating to a certain number of products was calculated and the production of OCDO by MCF7 cells after incubation of the cells with the same products was measured according to the protocol defined in assay 2 of the present patent application.

[3] = target: T1, ChEH (Mus musculus, UniProt P70245); assay: Conversion of [14C]CEα in cells of healthy mouse tissues with or without tamoxifen; format: cell-based; settings: incubation with tamoxifen
T1 construct: evaluated in cells of various healthy mouse tissues; from tissue; host or cells: cells from various healthy mouse organs

[4] = target: T2, ChEH (Homo sapiens, UniProt Q15125); assay: Inhibition of ChEH activity in MCF7 cells (TLC of [14C]CE conversion); format: cell-based; settings: tamoxifen 0.01-5 μM with [14C]CEα; PBPE 0.01-10 μM with [14C]CEβ
T2 construct: MCF7 tumor cells, which originate from the American Tissue Culture Collection (ATCC), were used; host or cells: MCF7
Procedure: For this experiment, an aminoalkyl sterol included in French patent 2 838 741 (and also see: de Medina et al., J Med Chem: 2009, vol. 52, No. 23, p. 7765-7777), having the formula: 6-N-[2-(3H-imidazol-4-yl)ethylamino]cholestane-3β,5α-diol (DDA), was chosen. […]
A thin-layer chromatography was carried out, the plate of which has been reproduced in FIG. 23. On this plate, the incubation is carried out, for lane 1, with [^14C]CE; for lane 2, with [^14C]CT; for lane 3, with the vehicle solvent, which is the same as that used for assays 1 to 5; for lane 4, with [14C]CE and 0.1 μM of the aminoalkyl sterol; and for lane 5, with [^14C]CE and a concentration of 1 μM of the aminoalkyl sterol.

[5] = system: OCDO; assay: OCDO content of TS/A tumors by GC/MS; format: in vivo, mice; settings: tamoxifen 10 μM, 100 μl intratumorally once a day
Procedure: 5 volumes (relative to the mass removed) of buffer (50 mM Tris-HCl, 150 mM KCl, pH=7.4) are added. The tumors are ground and the homogenates are centrifuged for 5 minutes at 2500 rpm at 4° C. […] After centrifugation (to separate the phases), the organic phase is recovered. The organic phase is evaporated to dryness and then the residue is taken up with 0.5 ml of chloroform. The organic extracts are filtered on 0.5 ml silica cartridges. The polar sterols are eluted sequentially:
1) 0.5 ml of a hexane/chloroform mixture (1/1), 2) 0.5 ml of chloroform, 3) 0.5 ml of ethyl acetate and methanol.
The ethyl acetate fractions are evaporated, silylated (50 μl 1/1 acetonitrile/BSTFA) and then analyzed by GC/MS (2 μl) according to the conditions described above.

[6] = system: IL12; assay: IL12 gene expression in THP1 cells treated with OCDO; format: cell-based, human; settings: 10 μM OCDO, 4 hours
Procedure: (§1) The THP1 cells (human myeloid cell line supplied by ATCC) are cultured with a culture medium of DMEM type (Dulbecco's modified eagle medium) supplemented with 10% of fetal calf serum and a mixture of antibiotics. The THP1 cells are treated with 10 μM of OCDO for 4 hours. The RNAs are extracted according to a conventional procedure. The complementary DNAs are produced, and then used to measure the expression of the genes of interest. The expression of the genes encoding interleukin 12 (IL12) and interleukin 10 (IL10) were studied, these interleukins representing a pair of cytokines with antagonistic properties. IL12 is an immunostimulatory cytokine, whereas IL10 is an immunosuppressive cytokine. The expression ratio of these two cytokines makes it possible to evaluate the immunosuppressor or immunostimulatory potential of the cell and its ability to promote tumor progression or, on the contrary, to slow it down.
(§2) The primers used correspond to the human sequences of IL10 and of IL12 and are the following: […]

[7] = system: T lymphocytes; settings: concentrations between 1 and 20 μM; cited from earlier work
[8] = system: T lymphocytes originating from human serum; settings: concentrations between 1 and 20 μM; cited from earlier work
[9] = system: TT cells; assay: Effect of OCDO on TT cell proliferation in vitro; format: cell-based, human; settings: 5 μM OCDO, 4 days of treatment, versus solvent
Procedure: (§3) a) In this example 2, the human medullary thyroid carcinoma cell line TT (American Tissues and Cells Collection) was used. This line is cultured in an F12K medium modified by Kaighn (sold by the company Invitrogen), containing 10% by weight of fetal calf serum and 2.5 ml of a solution of antibiotics (penicillin/streptomycin) at […]. The OCDO tested comes from the company Steraloids. In order to study in vitro the effect of OCDO on cell growth, the TT cells are seeded on to six-well plates (200 000 cells per well) in an F12K medium as defined above. The TT cells are treated every two days either with a solvent (ethanol at 0.1% in PBS phosphate buffer) or with amounts of OCDO in the solvent resulting in concentrations of 0.1, 1, 2.5 or 5 μM. The cells are counted 4 days after seeding. […] At the OCDO concentration of 5 μM, a proliferation induction factor of 1.5 is measured after 4 days of treatment; the induction of proliferation is therefore established in vitro for OCDO concentrations of between 100 nM and 5 μM. […] The animals (5 or 10 mice per group) are monitored regularly in order to measure tumor development. The volume of the tumors is calculated according to the formula L×l^2×0.5, where L is the length and l is the width of the tumor. […]

[10] = system: IL10; assay: IL10 gene expression in THP1 cells treated with OCDO; format: cell-based, human; settings: 10 μM OCDO, 4 hours
Procedure: as §1, §2

[11] = system: NK cell; settings: concentrations between 1 and 20 μM; cited from earlier work
[12] = system: TT cells; assay: Effect of OCDO on TT tumors implanted in Swiss nude mice; format: in vivo
Procedure: as §3
The animals were euthanized after 75 days of treatment and the tumor and the various organs were removed in order to be analyzed histologically. […]

[13] = system: leukocyte; settings: concentrations between 1 and 20 μM; cited from earlier work
[14] = system: phorbol ester-binding protein; settings: cited from earlier work

T2 sequence (Q15125 whole entry): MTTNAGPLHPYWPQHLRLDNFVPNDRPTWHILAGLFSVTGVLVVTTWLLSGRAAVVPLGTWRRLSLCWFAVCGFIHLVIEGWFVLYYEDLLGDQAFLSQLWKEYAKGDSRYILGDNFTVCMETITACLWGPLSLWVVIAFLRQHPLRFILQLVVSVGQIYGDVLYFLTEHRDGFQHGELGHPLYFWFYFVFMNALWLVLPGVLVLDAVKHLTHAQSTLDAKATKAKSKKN
T1 sequence (P70245 whole entry): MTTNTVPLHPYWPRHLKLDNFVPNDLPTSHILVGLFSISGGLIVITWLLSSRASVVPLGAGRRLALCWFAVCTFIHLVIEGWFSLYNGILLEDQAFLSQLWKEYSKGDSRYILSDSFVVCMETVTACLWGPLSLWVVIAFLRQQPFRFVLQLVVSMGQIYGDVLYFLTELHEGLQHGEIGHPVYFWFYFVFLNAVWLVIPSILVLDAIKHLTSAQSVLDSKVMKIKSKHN

CC/C(=C(\c1ccccc1)c1ccc(OCCN(C)C)cc1)c1ccccc1 [Tamoxifen, 2-[4-[(Z)-1,2-di(phenyl)but-1-enyl]phenoxy]-N,N-dimethylethanamine]
Tumor size (% control) ([1]; Day 28): 73.5 ± 8 % control
Tumor size (% control) ([1]; Day 37): 46.2 ± 7 % control
tumor mass ([1]; tumor removed on day 28 from one treated animal, control animal tumor 2 g): 1.45 g
% OCDO ([2]; MCF7 cells, [14C]CEα, three days, concentration given with each compound, share of labeled oxysterols): 6.9%
OCDO production by MCF-7 (% control) ([2]; concentration in μM in parentheses after each molecule, control = 100): <1 % control
formation of CT from [14C]CEα in healthy mouse tissue cells [3]: the CT compound no longer appears
inhibition of the ChEH activity (3 days) in MCF7 cells [4]: Dose-dependent inhibition
OCDO (% control) ([5]; Day 28): 19.2 ± 4 % control
OCDO (% control) ([5]; Day 37): 8.4 ± 4 % control

CC(C)CCC[C@@H](C)[C@H]1CC[C@H]2[C@@H]3CC(=O)[C@@]4(O)C[C@@H](O)CC[C@]4(C)[C@H]3CC[C@]12C [OCDO, 6-oxo-cholestane-3β,5α-diol]
expression of the cytokine IL12 [6]: reduces the expression
cytolytic activity produced by T lymphocytes in mice [7]: inhibit the cytolytic activity produced by T lymphocytes
rosette formation by T lymphocytes [8]: inhibit rosette formation by T lymphocytes
proliferation induction factor [9]: 1.5
expression of the immunosuppressive cytokine IL10 [10]: stimulates the expression
NK cell toxicity in mice [11]: induce NK cell toxicity
tumor volume versus control animals treated with the solvent ([12]; OCDO 50 μg/kg subcutaneously once a day, 5 days out of 7): almost three times larger
invasion of the lymph nodes versus solvent ([12]; OCDO 50 μg/kg, after 75 days of treatment): Twice as much invasion of the lymph nodes
leukocyte mobility [13]: inhibit leukocyte mobility
binding to a phorbol ester-binding protein [14]: binds to a phorbol ester-binding protein
